Key:
D(4) dopamine receptor = biological target: T1, D(4) dopamine receptor (Homo sapiens, UniProt P21917); assay: Displacement of [3H]YM-09151-2 from human cloned dopamine D4 receptor expressed in CHO cells
T1 sequence (P21917 whole entry): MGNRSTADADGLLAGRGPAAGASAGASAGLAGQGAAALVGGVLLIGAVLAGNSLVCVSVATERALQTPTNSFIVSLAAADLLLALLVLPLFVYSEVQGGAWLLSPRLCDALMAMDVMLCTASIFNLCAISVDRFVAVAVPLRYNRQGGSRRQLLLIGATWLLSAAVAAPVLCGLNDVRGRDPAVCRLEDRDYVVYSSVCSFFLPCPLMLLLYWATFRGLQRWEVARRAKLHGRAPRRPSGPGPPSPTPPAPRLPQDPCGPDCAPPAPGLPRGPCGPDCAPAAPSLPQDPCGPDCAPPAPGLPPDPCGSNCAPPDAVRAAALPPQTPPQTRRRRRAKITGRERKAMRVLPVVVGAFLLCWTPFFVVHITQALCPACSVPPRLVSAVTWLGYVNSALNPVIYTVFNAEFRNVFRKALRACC

D(2) dopamine receptor = D(2) dopamine receptor (Homo sapiens, UniProt P14416); assay: Displacement of [3H]spiperone from human cloned dopamine receptor D2 long expressed in CHO cells; format: cell-based
D(3) dopamine receptor = D(3) dopamine receptor (Homo sapiens, UniProt P35462); assay: biochemical
Chain of D(3) dopamine receptor (P35462 whole entry): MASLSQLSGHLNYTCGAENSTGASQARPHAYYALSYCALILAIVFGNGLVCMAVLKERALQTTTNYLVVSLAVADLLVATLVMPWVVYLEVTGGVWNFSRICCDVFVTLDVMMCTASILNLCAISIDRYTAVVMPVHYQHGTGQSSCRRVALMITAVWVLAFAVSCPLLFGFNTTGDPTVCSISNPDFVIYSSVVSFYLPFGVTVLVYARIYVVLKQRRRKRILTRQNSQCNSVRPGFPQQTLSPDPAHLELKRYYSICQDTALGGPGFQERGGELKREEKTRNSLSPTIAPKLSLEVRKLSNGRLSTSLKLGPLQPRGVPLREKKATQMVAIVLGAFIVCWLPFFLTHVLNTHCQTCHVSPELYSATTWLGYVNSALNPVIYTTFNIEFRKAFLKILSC
Description: Displacement of [3H]YM-09151-2 from human cloned dopamine D3 receptor expressed in CHO cells

Chain of D(2) dopamine receptor (P14416 whole entry): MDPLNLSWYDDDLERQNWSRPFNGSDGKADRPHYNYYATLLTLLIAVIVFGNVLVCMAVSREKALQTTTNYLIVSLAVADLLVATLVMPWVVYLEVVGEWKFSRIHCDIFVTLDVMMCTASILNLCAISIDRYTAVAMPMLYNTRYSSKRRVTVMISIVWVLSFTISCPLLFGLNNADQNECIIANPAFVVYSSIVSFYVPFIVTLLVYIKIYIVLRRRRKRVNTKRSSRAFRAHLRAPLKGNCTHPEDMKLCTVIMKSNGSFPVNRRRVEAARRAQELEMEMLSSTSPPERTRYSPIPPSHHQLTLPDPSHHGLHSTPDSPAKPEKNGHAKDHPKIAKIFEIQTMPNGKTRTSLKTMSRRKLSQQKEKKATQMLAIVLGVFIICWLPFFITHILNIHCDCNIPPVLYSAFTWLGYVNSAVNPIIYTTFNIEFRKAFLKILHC

Structure (SMILES)	Ki (D(4) dopamine receptor) [nM]	Ki (D(2) dopamine receptor) [nM]	Ki (D(3) dopamine receptor) [nM]
COc1ccc(C2=NO[C@H](CCCN3CCN(C(c4ccc(F)cc4)c4ccc(F)cc4)CC3)C2)cc1OC	426	80	2.1
CCOc1ccccc1N1CCN(CCC[C@@H]2CC(c3ccc(OC)c(OC)c3)=NO2)CC1	507	46	2.1
CCOc1ccccc1N1CCN(CCC[C@H]2CC(c3ccc(OC)c(OC)c3)=NO2)CC1	225	70	5.1
COc1ccc(C2=NO[C@@H](CCCN3CCN(C(c4ccc(F)cc4)c4ccc(F)cc4)CC3)C2)cc1OC	483	400	20

— ChEMBL document CHEMBL1147208, “Asymmetric synthesis of chiral piperazinylpropylisoxazoline ligands for dopamine receptors” (Eur J Med Chem, 2007)
